Results published in article PMC11833248, “Evolutionary and Functional Analysis of Monoamine Oxidase F: A Novel Member of the Monoamine Oxidase Gene Family” (Genome Biology and Evolution, 2025).
Like-named read-outs stand apart in the source and are kept apart here.

Tests used:
IPT-MAO A/B [1] = system: T1, IPT-MAO A/B; test: HRP-coupled spectrophotometric assay of H2O2, […] nm; format: biochemical, Megalops cyprinoides; settings: 25 °C, 50 mM Hepes/NaOH pH 7.5, 0.5% v/v reduced Triton X-100; read-out: IPT-MAO A/B / K M / Human MAOB
T1 construct: full length 522 residues (borders given for the mammalian construct); N-terminal 6xHis; Pichia pastoris KM71; detergent-solubilized, FOS-choline-12

IPT-MAO A/B [2] = settings: read-out: IPT-MAO A/B / K M / Human MAOB; 25 °C, 50 mM Hepes/NaOH pH 7.5, 0.5% v/v reduced Triton X-100

| Km (IPT-MAO A/B [1]) | Km (IPT-MAO A/B [2]) | SMILES |
| --- | --- | --- |
| 30 ± 4 µM | – | NCCC(=O)c1ccccc1N [Kynuramine] |
| – | 300 ± 30 µM | NCCc1ccc(O)c(O)c1 [Dopamine] |
| 50 ± 10 µM | – | NCc1ccccc1 [Benzylamine] |
| – | 100 ± 10 µM | NCCc1c[nH]c2ccc(O)cc12 [Serotonin] |
| 200 ± 40 µM | – | NCCc1ccc(O)cc1 [Tyramine] |

| SMILES | Km (IPT-MAO A/B [1]) | Km (IPT-MAO A/B [2]) |
| --- | --- | --- |
| NCCc1ccccc1 [Phenethylamine] | 70 ± 10 µM | – |
